Read-outs that look alike come from different tables or passages of the source.
Legend:
[1] = tested on: MES-SA/MX2 cells; test: Cytotoxicity in panel of MDR cell lines, MES-SA/MX2 (72 h and 144 h); assay type: cell-based, human; details: for IC50: Homo sapiens
Procedure, shortened: (§1)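 MDR lines (HCT-15; doxorubicin-resistant H69AR; mitoxantrone-resistant MES-SA/MX2 and HL60/MX2) seeded at 1000 cells/well in normal growth media, treated with 1:3 serially diluted payloads for 72 h and 144 h. Viability by CellTiter-Glo ATP luminescence; IC50 from four-parameter logistic fit of 10-point curves.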

[2] = tested on: C4-2 cells; test: Cell-based killing assay of payloads (CellTiter-Glo), C4-2 cells; parameters: species or system human; details: 5-day incubation; for IC50: Homo sapiens, C4-2, 120 h, average ± SD where replicates; for C4-2 % Kill: at maximum concentration tested (100 − % viable cells)
Procedure, shortened: (§2)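 Viability readout is CellTiter-Glo luminescence after a 5-day exposure to 10-point, threefold-diluted payloads spanning 100 nM–[…], following overnight attachment of 4000 cells/well. Four-parameter logistic fit gives IC50 in M; % kill taken at highest concentration tested.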

[3] = tested on: HL60/MX2 cells; test: Cytotoxicity in panel of MDR cell lines, HL60/MX2 (72 h and 144 h); assay type: cell-based, human; details: for IC50: Homo sapiens
Procedure, shortened: as §1

[4] = tested on: HEK293 cells; test: Cell-based killing assay of payloads (CellTiter-Glo), HEK293 cells; parameters: species or system human; details: 5-day incubation; for IC50: Homo sapiens, HEK293, 120 h; for HEK293 % Kill: at maximum concentration tested
Procedure, shortened: as §2

[5] = tested on: HCT15 cells; test: cells; assay type: cell-based, human; details: HCT15 cells; for HCT-15 % Kill / HCT-15 + verapamil % Kill: maximum % cell killing
Procedure, shortened: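 Five-day exposure of 1000 HCT15 cells/well to threefold payload dilutions, run both plus and minus verapamil (5 ug/mL) in RPMI with 10% FBS. ATP luminescence (CellTiter-Glo) gives viability; four-parameter logistic fit of 10 points yields IC50, and 100 − % viable at highest dose gives % kill.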

[6] = tested on: HCT-15 cells; test: Cytotoxicity in panel of MDR cell lines, HCT-15 (72 h and 144 h); assay type: cell-based, human; details: for IC50: Homo sapiens
Procedure, shortened: as §1

[7] = tested on: H69AR cells; test: Cytotoxicity in panel of MDR cell lines, H69AR (72 h and 144 h); assay type: cell-based, human; details: for IC50: Homo sapiens
Procedure, shortened: as §1

[8] = tested on: T47D cells; test: Cell-based killing assay of payloads (CellTiter-Glo), T47D cells; parameters: species or system human; details: 5-day incubation; for IC50: Homo sapiens, T47D, 120 h; for T47D % Kill: at maximum concentration tested
Procedure, shortened: as §2

[9] = 72 h incubation, read-out: MES-SA/MX2 IC50 72 h
[10] = 144 h incubation, read-out: MES-SA/MX2 IC50 144 h
[11] = 72 h incubation, read-out: HL60/MX2 IC50 72 h
[12] = 144 h incubation, read-out: HL60/MX2 IC50 144 h
[13] = Homo sapiens, HCT-15, without Verapamil, read-out: HCT-15 IC50
[14] = 72 h incubation, read-out: HCT-15 IC50 72 h
[15] = 144 h incubation, read-out: HCT-15 IC50 144 h
[16] = 72 h incubation, read-out: H69AR IC50 72 h
[17] = 144 h incubation, read-out: H69AR IC50 144 h
[18] = with 5 ug/mL Verapamil, read-out: HCT-15 + verapamil IC50

| SMILES | MES-SA/MX2 % Kill 72 h ([1]; 72 h incubation) [%] | MES-SA/MX2 % Kill 144 h ([1]; 144 h incubation) [%] | IC50 [1, 9] [nM] | IC50 [1, 10] [nM] | IC50 [2] [nM] | C4-2 % Kill [2] [%] | HL60/MX2 % Kill 72 h ([3]; 72 h incubation) [%] | HL60/MX2 % Kill 144 h ([3]; 144 h incubation) [%] | IC50 [3, 11] [nM] | IC50 [3, 12] [nM] | IC50 [4] [nM] | HEK293 % Kill [4] [%] | HCT-15 % Kill ([5]; without Verapamil) [%] | IC50 [5, 13] [nM] | HCT-15 % Kill 72 h ([6]; 72 h incubation) [%] | HCT-15 % Kill 144 h ([6]; 144 h incubation) [%] | IC50 [6, 14] [nM] | IC50 [6, 15] [nM] | H69AR % Kill 72 h ([7]; 72 h incubation) [%] | H69AR % Kill 144 h ([7]; 144 h incubation) [%] | further results |
| --- | --- | --- | --- | --- | --- | --- | --- | --- | --- | --- | --- | --- | --- | --- | --- | --- | --- | --- | --- | --- | --- |
| CC[C@H](C)[C@H](NC(=O)[C@H]1CCCCN1C)C(=O)N(CCCCc1cn(C)nn1)[C@H](C[C@@H](OC(C)=O)c1nc(C(=O)N[C@@H](Cc2ccc(N)cc2)CC(C)(C)C(=O)O)cs1)C(C)C [IVh, (S)-4-(2-((1R,3R)-1-acetoxy-4-methyl-3-((2S,3S)-3-methyl-N-(4-(1-methyl-1H-1,2,3-triazol-4-yl)butyl)-2-((R)-1-methylpiperidine-2-carboxamido)pentanamido)pentyl)thiazole-4-carboxamido)-5-(4-aminophenyl)-2,2-dimethylpentanoic acid] | 98.5 | 99.9 | 7.49 | 8.8 | 0.647 | 82 ± 2.8 | 96.4 | 100 | 1.11 | < 0.015 | 1.76 | 82.5 | 94.6 ± 3.5 | 2.5 | 95.4 | 99.7 | 1.52 | 1.53 | 90.2 | 97.5 | IC50 [7, 16]: 2.93 nM; IC50 [7, 17]: 3.3 nM; IC50 [8]: 1.86 nM; T47D % Kill [8]: 71.6% |
| CCCCCON(C(=O)[C@@H](NC(=O)[C@H]1CCCCN1C)[C@@H](C)CC)[C@H](C[C@@H](OC(C)=O)c1nc(C(=O)N[C@@H](Cc2ccc(N)cc2)CC(C)(C)C(=O)O)cs1)C(C)C [Vb, (4S)-4-({2-[(1R,3R)-1-(Acetyloxy)-4-methyl-3-[(2S,3S)-3-methyl-2-{[(2R)-1-methylpiperidin-2-yl]formamido}-N-(pentyloxy)pentanamido]pentyl]-1,3-thiazol-4-yl}formamido)-5-(4-aminophenyl)-2,2-dimethylpentanoic acid] | 99.6 | 99.9 | 0.213 | 1.04 | 0.07 | 92.3 ± 1.7 | 97.9 | 100 | < 0.015 | < 0.015 | 0.289 | 87.8 | 98.8 ± 0.7 | 0.12 | 97.8 | 99.7 | 0.0623 | 0.127 | 97 | 99.4 | HCT-15 + verapamil % Kill ([5]; with 5 ug/mL Verapamil): 98.2 ± 0.5%; IC50 [5, 18]: 0.0365 nM; IC50 [7, 16]: 0.272 nM; IC50 [7, 17]: 0.66 nM; IC50 [8]: 0.144 nM; T47D % Kill [8]: 66.5% |
| C#CCCCON(C(=O)[C@@H](NC(=O)[C@H]1CCCCN1C)[C@@H](C)CC)[C@H](C[C@@H](OC(C)=O)c1nc(C(=O)N[C@@H](Cc2ccccc2)CC(C)(C)C(=O)O)cs1)C(C)C [Vc, (4S)-4-({2-[(1R,3R)-1-(Acetyloxy)-4-methyl-3-[(2S,3S)-3-methyl-2-{[(2R)-1-methylpiperidin-2-yl]formamido}-N-(pent-4-yn-1-yloxy)pentanamido]pentyl]-1,3-thiazol-4-yl}formamido)-2,2-dimethyl-5-phenylpentanoic acid] | 99.2 | 100 | 0.0895 | 0.299 | 0.036 | 91.7 | 98.4 | 99.9 | < 0.015 | < 0.015 | 0.113 | 86.9 | 97.6 | 0.475 | 97.6 | 99.7 | 0.033 | 0.0675 | 96.6 | 99.4 | HCT-15 + verapamil % Kill ([5]; with 5 ug/mL Verapamil): 96.7%; IC50 [5, 18]: 0.146 nM; IC50 [7, 16]: 0.154 nM; IC50 [7, 17]: 0.287 nM; IC50 [8]: 0.0677 nM; T47D % Kill [8]: 64.9% |
| C#CCCCON(C(=O)[C@@H](NC(=O)[C@H]1CCCCN1C)[C@@H](C)CC)[C@H](C[C@@H](OC(C)=O)c1nc(C(=O)N[C@@H](Cc2ccc(O)cc2)C[C@H](C)C(=O)O)cs1)C(C)C [Vg, (2S,4R)-4-({2-[(1R,3R)-1-(Acetyloxy)-4-methyl-3-[(2S,3S)-3-methyl-2-{[(2R)-1-methylpiperidin-2-yl]formamido}-N-(pent-4-yn-1-yloxy)pentanamido]pentyl]-1,3-thiazol-4-yl}formamido)-5-(4-hydroxyphenyl)-2-methylpentanoic acid] | 98 | 99.8 | 3.54 | 5.3 | 0.369 | 93.2 | 98 | 99.9 | 0.131 | 0.061 | 0.7 | 86.4 | 94.9 | 0.53 | 97.6 | 99.5 | 0.68 | 0.916 | 94.2 | 98.4 | HCT-15 + verapamil % Kill ([5]; with 5 ug/mL Verapamil): 98%; IC50 [5, 18]: 0.237 nM; IC50 [7, 16]: 2.13 nM; IC50 [7, 17]: 2.72 nM; IC50 [8]: 0.535 nM; T47D % Kill [8]: 65.2% |
| C#CCCCON(C(=O)[C@@H](NC(=O)[C@H]1CCCCN1C)[C@@H](C)CC)[C@H](C[C@@H](OC(C)=O)c1nc(C(=O)N[C@@H](Cc2ccc(N)cc2)C[C@H](C)C(=O)O)cs1)C(C)C [Vh, (2S,4R)-4-({2-[(1R,3R)-1-(Acetyloxy)-4-methyl-3-[(2S,3S)-3-methyl-2-{[(2R)-1-methylpiperidin-2-yl]formamido}-N-(pent-4-yn-1-yloxy)pentanamido]pentyl]-1,3-thiazol-4-yl}formamido)-5-(4-aminophenyl)-2-methylpentanoic acid] | 98.4 | 99.8 | 2.98 | 8.15 | 0.509 | 92 | 97.5 | 99.9 | 0.173 | < 0.015 | 0.718 | 85.6 | 97.7 | 1.47 | 97 | 99.6 | 0.871 | 1.27 | 93.7 | 98.4 | HCT-15 + verapamil % Kill ([5]; with 5 ug/mL Verapamil): 98.1%; IC50 [5, 18]: 0.587 nM; IC50 [7, 16]: 2.59 nM; IC50 [7, 17]: 4.21 nM; IC50 [8]: 0.458 nM; T47D % Kill [8]: 64.5% |
